Results taken from patent US20140343000A1 (priority 2011, published 2014).
pEC50: −log10 of the molar value.

system: recombinant NL4-3 virus (Renilla luciferase in nef, Gag P373S; NLRluc) in MT-2 cells; test: whole plant or invertebrate; type: cell-based, HIV; settings: Renilla, NL43, luciferase activity in cells infected for 4-5 days with NLRluc recombinants, serial dilutions of inhibitor; class symbols (key in Table 1); read-out: EC50
Protocol: MT-2 cells and 293T cells were obtained from the NIH AIDS Research and Reference Reagent Program. MT-2 cells were propagated in RPMI 1640 media supplemented with 10% heat inactivated fetal bovine serum, […]. The 293T cells were propagated in DMEM media supplemented with 10% heat inactivated fetal bovine serum (FBS), 100 units/ml penicillin G and 100 μg/ml streptomycin. The proviral DNA clone of NL4-3 was obtained from the NIH AIDS Research and Reference Reagent Program. A recombinant NL4-3 virus, in which a section of the nef gene from NL4-3 was replaced with the Renilla luciferase gene, was used as a reference virus. In addition, residue Gag P373 was converted to P373S. Briefly, the recombinant virus was prepared by transfection of the altered proviral clone of NL4-3. Transfections were performed in 293T cells using LipofectAMINE PLUS from Invitrogen (Carlsbad, Calif.), according to manufacturer's instruction. The virus was titered in MT-2 cells using luciferase enzyme activity as a marker. Luciferase was quantitated using the Dual Luciferase kit from Promega (Madison, Wis.), with modifications to the manufacturer's protocol. The diluted Passive Lysis solution was pre-mixed with the re-suspended Luciferase Assay Reagent and the re-suspended Stop & Glo Substrate (2:1:1 ratio). Fifty (50) μL of the mixture was added to each aspirated well on assay plates and luciferase activity was measured immediately on a Wallac TriLux (Perkin-Elmer). Antiviral activities of inhibitors toward the recombinant virus were quantified by measuring luciferase activity in cells infected for 4-5 days with NLRluc recombinants in the presence serial dilutions of the inhibitor. Table 1 is the key for the data in Table 2.

How did the pEC50 turn out when C=C(C)[C@@H]1CC[C@]2(NC(=O)NC3(CN(CC)CC)CC3)CC[C@]3(C)[C@H](CC[C@@H]4[C@@]5(C)CC=C(c6ccc(C(=O)O)cc6)C(C)(C)[C@@H]5CC[C@]43C)[C@@H]12 [Example 7, 4-((1R,3aS,5aR,5bR,7aR,11aS,11bR,13aR,13bR)-3a-(3-(1-((diethylamino)methyl)cyclopropyl)ureido)-5a,5b,8,8,11a-pentamethyl-1-(prop-1-en-2-yl)-2,3,3a,4,5,5a,5b,6,7,7a,8,11,11a,11b,12,13,13a,13b-octadecahydro-1H-cyclopenta[a]chrysen-9-yl)benzoic acid] was run?
The pEC50 was greater than 7.00.

With C=C(C)[C@@H]1CC[C@]2(NC(=O)C(c3ccccc3)N3CCS(=O)(=O)CC3)CC[C@]3(C)[C@H](CC[C@@H]4[C@@]5(C)CC=C(c6ccc(C(=O)O)cc6)C(C)(C)[C@@H]5CC[C@]43C)[C@@H]12 (single isomer, unassigned) [Example 91] as the compound, how does the pEC50 read?
Its pEC50 is greater than 7.00.

How did the pEC50 turn out when C=C(C)[C@@H]1CC[C@]2(NC(=O)C(C)N3CCS(=O)(=O)CC3)CC[C@]3(C)[C@H](CC[C@@H]4[C@@]5(C)CC=C(c6ccc(C(=O)O)cc6)C(C)(C)[C@@H]5CC[C@]43C)[C@@H]12 (stereo partly drawn) [Example 93, benzoic acid, 4-[(1R,3aS,5aR,5bR,7aR,11aS,11bR,13aR,13bR)-3a-[[2-(1,1-dioxido-4-thiomorpholinyl)-1-oxopropyl]amino]-2,3,3a,4,5,5a,5b,6,7,7a,8,11,11a,11b,12,13,13a,13b-octadecahydro-5a,5b,8,8,11a-pentamethyl-1-(1-methylethenyl)-1H-cyclopenta[a]chrysen-9-yl]] was run?
Its pEC50 is greater than 7.00.

How did the pEC50 turn out when C=C(C)[C@@H]1CC[C@]2(NC(=O)N3CCNCC(O)C3)CC[C@]3(C)[C@H](CC[C@@H]4[C@@]5(C)CC=C(c6ccc(C(=O)O)cc6)C(C)(C)[C@@H]5CC[C@]43C)[C@@H]12 (mixture of isomers) [Example 64, 4-((1R,3aS,5aR,5bR,7aR,11aS,11bR,13aR,13bR)-3a-(6-hydroxy-1,4-diazepane-1-carboxamido)-5a,5b,8,8,11a-pentamethyl-1-(prop-1-en-2-yl)-2,3,3a,4,5,5a,5b,6,7,7a,8,11,11a,11b,12,13,13a,13b-octadecahydro-1H-cyclopenta[a]chrysen-9-yl)benzoic acid] was run?
The pEC50 was greater than 7.00.

C=C(C)[C@@H]1CC[C@]2(NC(=O)CN3CCS(=O)(=O)CC3)CC[C@]3(C)[C@H](CC[C@@H]4[C@@]5(C)CC=C(c6ccc(C(=O)O)cc6)C(C)(C)[C@@H]5CC[C@]43C)[C@@H]12 [Example 82, benzoic acid, 4-[(1R,3aS,5aR,5bR,7aR,11aS,11bR,13aR,13bR)-3a-[[(1,1-dioxido-4-thiomorpholinyl)acetyl]amino]-2,3,3a,4,5,5a,5b,6,7,7a,8,11,11a,11b,12,13,13a,13b-octadecahydro-5a,5b,8,8,11a-pentamethyl-1-(1-methylethenyl)-1H-cyclopenta[a]chrysen-9-yl]] was tested. Which pEC50 did it give?
The pEC50 was greater than 7.00.

How did the pEC50 turn out when C=C(C)[C@@H]1CC[C@]2(NC(=O)Cc3nnn[nH]3)CC[C@]3(C)[C@H](CC[C@@H]4[C@@]5(C)CC=C(c6ccc(C(=O)O)cc6)C(C)(C)[C@@H]5CC[C@]43C)[C@@H]12 [Example 77, 4-((1R,3aS,5aR,5bR,7aR,11aS,11bR,13aR,13bR)-3a-(2-(1H-tetrazol-5-yl)acetamido)-5a,5b,8,8,11a-pentamethyl-1-(prop-1-en-2-yl)-2,3,3a,4,5,5a,5b,6,7,7a,8,11,11a,11b,12,13,13a,13b-octadecahydro-1H-cyclopenta[a]chrysen-9-yl)benzoic acid] was run?
The pEC50 was greater than 7.00.

C=C(C)[C@@H]1CC[C@]2(NCCN3CCN(S(=O)(=O)CC)CC3)CC[C@]3(C)[C@H](CC[C@@H]4[C@@]5(C)CC=C(c6ccc(C(=O)O)cc6)C(C)(C)[C@@H]5CC[C@]43C)[C@@H]12 [Example B19, 4-((1R,3aS,5aR,5bR,7aR,11aS,11bR,13aR,13bR)-3a-((2-(4-(ethylsulfonyl)piperazin-1-yl)ethyl)amino)-5a,5b,8,8,11a-pentamethyl-1-(prop-1-en-2-yl)-2,3,3a,4,5,5a,5b,6,7,7a,8,11,11a,11b,12,13,13a,13b-octadecahydro-1H-cyclopenta[a]chrysen-9-yl)benzoic acid] was tested. Which pEC50 did it give?
The pEC50 was greater than 7.00.

How did the pEC50 turn out when CC(C)[C@@H]1CC[C@]2(NCCN3CCOCC3)CC[C@]3(C)[C@H](CC[C@@H]4[C@@]5(C)CC[C@H](c6ccc(C(=O)O)cc6)C(C)(C)[C@@H]5CC[C@]43C)[C@@H]12 [Example B4] was run?
The pEC50 was greater than 7.00.

With CC(C)[C@@H]1CC[C@]2(N(CCN(C)C)CCN(C)C)CC[C@]3(C)[C@H](CC[C@@H]4[C@@]5(C)CC[C@H](c6ccc(C(=O)O)cc6)C(C)(C)[C@@H]5CC[C@]43C)[C@@H]12 [Example B6, 4-((1S,3aS,5aR,5bR,7aS,9S,11aS,11bR,13aR,13bR)-3a-(bis(2-(dimethylamino)ethyl)amino)-1-isopropyl-5a,5b,8,8,11a-pentamethylicosahydro-1H-cyclopenta[a]chrysen-9-yl)benzoic acid] as the compound, how does the pEC50 read?
Its pEC50 is greater than 7.00.

With C=C(C)[C@@H]1CC[C@]2(NCCNc3ccc(C)nn3)CC[C@]3(C)[C@H](CC[C@@H]4[C@@]5(C)CC=C(c6ccc(C(=O)O)cc6)C(C)(C)[C@@H]5CC[C@]43C)[C@@H]12 [Example 194, 4-((1R,3aS,5aR,5bR,7aR,11aS,11bR,13aR,13bR)-5a,5b,8,8,11a-pentamethyl-3a-(2-(6-methylpyridazin-3-ylamino)ethylamino)-1-(prop-1-en-2-yl)-2,3,3a,4,5,5a,5b,6,7,7a,8,11,11a,11b,12,13,13a,13b-octadecahydro-1H-cyclopenta[a]chrysen-9-yl)benzoic acid] as the compound, how does the pEC50 read?
The pEC50 was greater than 7.00.

C=C(C)[C@@H]1CC[C@]2(NCCN3CCN(C(=O)C(=O)N(C)C)CC3)CC[C@]3(C)[C@H](CC[C@@H]4[C@@]5(C)CC=C(c6ccc(C(=O)O)cc6)C(C)(C)[C@@H]5CC[C@]43C)[C@@H]12 [Example B25, 4-((1R,3aS,5aR,5bR,7aR,11aS,11bR,13aR,13bR)-3a-((2-(4-(2-(dimethylamino)-2-oxoacetyl)piperazin-1-yl)ethyl)amino)-5a,5b,8,8,11a-pentamethyl-1-(prop-1-en-2-yl)-2,3,3a,4,5,5a,5b,6,7,7a,8,11,11a,11b,12,13,13a,13b-octadecahydro-1H-cyclopenta[a]chrysen-9-yl)benzoic acid] was tested. Which pEC50 did it give?
Its pEC50 is greater than 7.00.

How did the pEC50 turn out when C=C(C)[C@@H]1CC[C@]2(NCCNc3ccc(SC)cn3)CC[C@]3(C)[C@H](CC[C@@H]4[C@@]5(C)CC=C(c6ccc(C(=O)O)cc6)C(C)(C)[C@@H]5CC[C@]43C)[C@@H]12 [Example 196, 4-((1R,3aS,5aR,5bR,7aR,11aS,11bR,13aR,13bR)-5a,5b,8,8,11a-pentamethyl-3a-(2-(5-(methylthio)pyridin-2-ylamino)ethylamino)-1-(prop-1-en-2-yl)-2,3,3a,4,5,5a,5b,6,7,7a,8,11,11a,11b,12,13,13a,13b-octadecahydro-1H-cyclopenta[a]chrysen-9-yl)benzoic acid] was run?
The pEC50 was greater than 7.00.

How did the pEC50 turn out when C=C(C)[C@@H]1CC[C@]2(NCCN3CCN(S(=O)(=O)c4ccc(F)cc4)CC3)CC[C@]3(C)[C@H](CC[C@@H]4[C@@]5(C)CC=C(c6ccc(C(=O)O)cc6)C(C)(C)[C@@H]5CC[C@]43C)[C@@H]12 [Example B50, 4-((1R,3aS,5aR,5bR,7aR,11aS,11bR,13aR,13bR)-3a-((2-(4-((4-fluorophenyl)sulfonyl)piperazin-1-yl)ethyl)amino)-5a,5b,8,8,11a-pentamethyl-1-(prop-1-en-2-yl)-2,3,3a,4,5,5a,5b,6,7,7a,8,11,11a,11b,12,13,13a,13b-octadecahydro-1H-cyclopenta[a]chrysen-9-yl)benzoic acid] was run?
Its pEC50 is greater than 7.00.

C=C(C)[C@@H]1CC[C@]2(NC(=O)N(CCN3CCOCC3)CC(=O)O)CC[C@]3(C)[C@H](CC[C@@H]4[C@@]5(C)CC=C(c6ccc(C(=O)O)cc6)C(C)(C)[C@@H]5CC[C@]43C)[C@@H]12 [Example 53, 4-((1R,3aS,5aR,5bR,7aR,11aS,11bR,13aR,13bR)-3a-(3-(carboxymethyl)-3-(2-morpholinoethyl)ureido)-5a,5b,8,8,11a-pentamethyl-1-(prop-1-en-2-yl)-2,3,3a,4,5,5a,5b,6,7,7a,8,11,11a,11b,12,13,13a,13b-octadecahydro-1H-cyclopenta[a]chrysen-9-yl)benzoic acid] was tested. Which pEC50 did it give?
The pEC50 was greater than 7.00.

same assay, conditions: Renilla, NL43, luciferase activity in cells infected for 4-5 days with NLRluc recombinants, serial dilutions of inhibitor; numeric values; read-out: EC50

C=C(C)[C@@H]1CC[C@]2(NCCNCCC(=O)O)CC[C@]3(C)[C@H](CC[C@@H]4[C@@]5(C)CC=C(c6ccc(C(=O)O)cc6)C(C)(C)[C@@H]5CC[C@]43C)[C@@H]12 [Example 140, 4-((1R,3aS,5aR,5bR,7aR,11aS,11bR,13aR,13bR)-3a-(2-(2-carboxyethylamino)ethylamino)-5a,5b,8,8,11a-pentamethyl-1-(prop-1-en-2-yl)-2,3,3a,4,5,5a,5b,6,7,7a,8,11,11a,11b,12,13,13a,13b-octadecahydro-1H-cyclopenta[a]chrysen-9-yl)benzoic acid] was tested. Which pEC50 did it give?
Its pEC50 is 8.05.
